Earlier results as cited in patent US20240277751A1, “CRYSTALLINE POLYMORPHIC FORMS OF STING AGONISTS ASSOCIATED WITH METAL IONS CAPABLE OF MODULATING AN IMMUNE RESPONSE” (priority 2020, published 2024).

Nc1ncnc2c1ncn2[C@@H]1O[C@@H]2COP(=O)([S-])O[C@@H]3[C@H](O)[C@@H](COP([O-])(=S)O[C@H]2[C@H]1O)O[C@H]3n1cnc2c(N)ncnc21.[Na+].[Na+] (some centres unmarked) [MIW815]
fraction entered the systemic circulation (1 hour after intratumor injection, phase I clinical trial): over 98%
half-life in serum (in vivo): ~16 min
